Results on one compound are retold here after patent publication US20260069621A1, “Pentagalloyl glucose (PGG) for use in treatment of pulmonary hypertension” (Charité - Universitaetsmedizin Berlin, priority 2021, published 2026).

Data set [1] relates to rat AAA model. The conditions noted are these: local application; cited from earlier work.
For data set [2] the following is noted: concentrations similar to 0.1%; cited from earlier work.
Data set [3] concerns human PAs. Description: Ex vivo culture of human PAs with or without elastase, EVG staining of elastic fibers. The method, then: Effects of PGG on PA biomechanics. The effect of PGG on PA biomechanical properties was assessed by ex vivo culture of PA specimens followed by uniaxial tensile testing. Freshly isolated PAs were handled under sterile conditions. One piece of the artery was excised and directly underwent uniaxial tensile testing to record PA biomechanics at baseline. The rest of the PA was prepared as 2×8-mm strips and placed in a 12-well plate for ex vivo culture in serum-free Dulbecco's modified Eagle's medium (DMEM, Gibco) supplied with penicillin-streptomycin (Thermo Fisher) at 37° C. with controlled humidity at 21% O2 and 5% CO2. PGG (penta-O-galloyl-β-D-glucose hydrate, Sigma-Aldrich) was dissolved in dimethyl sulfoxide (DMSO, Sigma-Aldrich) as a stock solution and added to the medium at a final concentration of 0.1%. […] The following four treatment conditions were tested: control, elastase only, PGG only and PGG prior to elastase. PGG treatment was performed for 1 h at 37° C. prior to culturing PAs for 24 h in the presence or absence of elastase. Control samples were incubated with the corresponding concentrations of DMSO. Histology. Human or rat PA samples were cryo-embedded in OCT Compound (Tissue-Tek) and sliced into 10 μm transverse sections on a Microm HM560 cryostat. […] EVG staining was quantified based on positively stained area on single-plane images using Fiji-ImageJ.

The subject of data set [4] is human PAs. Description: Ex vivo culture of human PAs followed by uniaxial tensile test. The note with it: 0.1% PGG. The method, then: Uniaxial tensile test. Following harvesting, human PA samples were kept in normal saline on ice and assessed for biomechanics within 2-4 h. […] Loose connective and adipose tissue were carefully removed, and sample dimensions (length and width) were measured using a digital caliper. The circumferential tensile properties of PAs were assessed using a MyoDynamics Muscle Strip Myograph System (840DM, Danish Myo Technology, Hinnerup, Denmark) with controlled temperature (37° C.) and aeration. To this end, circumferential rectangular sections (2×8 mm) were excised from the pulmonary trunk and mounted at 5 mm length. […] From force-displacement curves, the following parameters were derived: stiffness of elastin (k1)- and collagen (k2)-enriched arterial material (calculated as the slopes of the toe- and linear regions, respectively), with stiffness (k, mN/mm) reflecting the resistance to deformation (ΔF/ΔL) generated by the respective material, and the strain at which the transition of load-bearing elements from elastin to collagen occurred (εTrans), defined based on force-displacement curve characteristics as the strain applied when F reached 100 mN.
Effects of PGG on PA biomechanics. The effect of PGG on PA biomechanical properties was assessed by ex vivo culture of PA specimens followed by uniaxial tensile testing. […]

Turning to `O=C(OC[C@H]1O[C@@H](OC(=O)c2cc(O)c(O)c(O)c2)[C@H](OC(=O)c2cc(O)c(O)c(O)c2)[C@@H](OC(=O)c2cc(O)c(O)c(O)c2)[C@@H]1OC(=O)c1cc(O)c(O)c(O)c1)c1cc(O)c(O)c(O)c1` [PGG, 1,2,3,4,6-Penta-O-galloyl-β-D-glucose], in data set [1], the Aneurysmal expansion entry is listed as “reduce” and the Elastic fiber degeneration entry is recorded as “effectively decrease”. In addition, the Cytotoxicity result in data set [2] was “minimal cytotoxicity”. In data set [3] (0.1% PGG, 1 U porcine elastase for 24 h), the “Elastic fibers (EVG staining) after elastase treatment” value is recorded as “partially preserved”. In addition, the Elastin content entry in data set [3] (naïve PAs and PAs treated with elastase) is recorded as “increased elastin content”. The “εTrans in uniaxial tensile tests” value in data set [4] (elastase-treated PAs) was “increased”. In addition, the “Load borne by elastic fibers” value in data set [4] (naïve PAs) was “increased the load borne by elastic fibers”.
